Experimental data taken from patent publication US8399465B2, “Compounds with two fused bicyclic heteroaryl moieties as modulators of leukotriene A4 hydrolase” (Janssen Pharmaceutica NV, priority 2009, dated 2013).
pIC50: −log10 of the molar value. Where two headings read alike, the source gives them in different places.

How the values were obtained:
[1] = test system: LTB4 production in murine blood (LTA4H); assay: LTB4 production by calcium ionophore-stimulated murine blood for LTA4H inhibitor activity; type: cell-based, CD-1 mice; details: Mus musculus; murine blood diluted 1 in 15, A23187 stimulated; single determination or average; mark after value = form tested: ′ free base, ″ hydrochloride, ^ formate; read-out: IC50
How it was run: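 LTB4 was measured by ELISA in supernatants after calcium ionophore A23187 stimulation (final 7 μg/mL, 30 min, 37° C) of CD-1 mouse blood collected on heparin. Compound was preincubated with the blood for 15 min beforehand. Values come from one determination or average several.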

[2] = test system: arachidonic acid-induced neutrophil influx in murine ear tissue; assay: Murine arachidonic acid-induced inflammation model: neutrophil influx (myeloperoxidase) in ear; type: in vivo, Balb/c mice; details: Mus musculus; 30 mg/kg oral gavage, 60 min before topical arachidonic acid, ear biopsy after 3 h; percent inhibition of neutrophil influx; read-out: % Inh. MPO
Experimental: (§1) Assay 3: Murine Arachidonic Acid-Induced Inflammation Model
(§2) LTA4H inhibitor compounds of the present invention were dissolved in 20% cyclodextran/H2O at a concentration of 3 mg/mL. The solutions were administered by oral gavage to female Balb/c mice weighing approximately 20 grams each (0.2 mL per mouse, 30 mg of LTA4H inhibitor compound per kg). Sixty minutes after being administered an LTA4 inhibitor, each mouse received topical application of 20 μL of arachidonic acid (100 mg/mL in acetone) to the left ear and 20 μL of acetone only to the right ear. After 3 h, the mice were sacrificed, blood was withdrawn in heparinized syringes, and 8 mm ear biopsies were taken. Ear biopsies were weighed to determine edema and then frozen at −80° C. until needed for determination of neutrophil influx.
Neutrophil influx was quantified by measuring the activity of myeloperoxidase (MPO), a neutrophil-specific enzyme. […] Debris was removed by centrifugation at 14000×g for 10 min. […] The microtiter plate contents were held at room temperature until the sample with the highest concentration of MPO reached an absorbance value of 0.4 at 650 nm. The reaction was stopped by addition of 50 μL 1 M H2SO4 to each sample well, and the myeloperoxidase activity in each sample was determined from the absorbance at […]. The background value from the right ear, treated only with acetone, was subtracted from that for the left ear, treated with arachidonic acid in acetone, for each animal. The percent inhibition of neutrophil influx (% Inh. MPO) by compounds of the invention was determined by comparison to animals treated identically, except that the solution administered by oral gavage was devoid of inhibitor compound. All compounds were assayed in their free base form.

[3] = test system: ex vivo calcium ionophore-stimulated LTB4 production in whole blood; assay: Murine arachidonic acid-induced inflammation model: ex vivo stimulated LTB4 production in blood; set-up: species or system Balb/c mice; details: Mus musculus; 30 mg/kg oral gavage; blood diluted 1:1, A23187 stimulated ex vivo; percent inhibition of LTB4 production; read-out: % Inh. LTB4
Experimental: as §1, §2
The microtiter plate contents were incubated for 30 min at 37° C. in a humidified incubator. The reaction was terminated by centrifugation (833×g, 10 min at 4° C.). Supernatants were analyzed for LTB4 by a commercially available enzyme-linked immunoassay (Cayman Chemical Co.) in accordance with the manufacturer's instructions. The percent inhibition of ex vivo stimulated LTB4 production (% Inh. LTB4) was determined by comparison to animals treated identically except that the solution administered by oral gavage was devoid of inhibitor compound.

[4] = target: T1, recombinant human LTA4 hydrolase (rhLTA4H) (Homo sapiens, UniProt P09960); assay: Recombinant human LTA4 hydrolase assay for LTA4 hydrolase inhibitor activity; type: biochemical
T1 construct: made in house; host or cells: Spodoptera frugiperda (Sf-9) cells, baculovirus (pFastBac1)
T1 sequence (P09960 1-611): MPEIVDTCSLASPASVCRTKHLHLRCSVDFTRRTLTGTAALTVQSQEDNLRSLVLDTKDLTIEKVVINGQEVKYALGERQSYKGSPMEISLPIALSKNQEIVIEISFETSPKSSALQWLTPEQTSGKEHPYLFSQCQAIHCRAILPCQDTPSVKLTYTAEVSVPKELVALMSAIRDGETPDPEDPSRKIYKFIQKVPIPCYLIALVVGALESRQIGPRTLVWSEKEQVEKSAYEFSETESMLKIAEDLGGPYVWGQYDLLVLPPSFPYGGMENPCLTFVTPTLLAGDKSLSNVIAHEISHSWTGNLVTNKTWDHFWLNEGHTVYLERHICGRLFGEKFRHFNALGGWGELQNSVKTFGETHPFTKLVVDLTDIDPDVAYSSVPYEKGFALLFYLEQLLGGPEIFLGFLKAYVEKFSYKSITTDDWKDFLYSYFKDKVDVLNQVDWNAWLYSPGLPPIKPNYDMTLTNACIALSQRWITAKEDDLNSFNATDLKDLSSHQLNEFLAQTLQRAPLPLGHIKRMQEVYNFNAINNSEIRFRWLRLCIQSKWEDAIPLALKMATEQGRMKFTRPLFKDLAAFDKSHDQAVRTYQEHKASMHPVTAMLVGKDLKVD
How it was run: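 LTB4 formation, measured by enzyme immunoassay, was the read-out. The enzyme, recombinant human LTA4H expressed in Sf-9 insect cells (10 ng per reaction), was exposed to compound for 10 min at room temperature before hydrolysed-ester LTA4 substrate was added for 30 min. Enzyme-free negatives were included.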

[5] = rhLTA4H, LTB4 by immunoassay, single determination or average of two or more, mark after value = form tested: ′ free base, ″ hydrochloride, ^ formate, read-out: IC50

| SMILES | pIC50 [1] | pIC50 [4, 5] | inhibition at 30 mg/kg [2] | inhibition at 30 mg/kg [3] | pIC50 [4] |
| --- | --- | --- | --- | --- | --- |
| NC(=O)C1CCN(Cc2cc3ccc(Oc4nc5ncccc5s4)cc3o2)CC1 [Example 116, 1-[6-(Thiazolo[4,5-b]pyridin-2-yloxy)-benzofuran-2-ylmethyl]-piperidine-4-carboxylic acid amide] | 7.26 | 7.36 | 66% | 76% | – |
| CC(=O)N[C@H]1C[C@H]2CC[C@@H](C1)N2Cc1cc2ccc(Oc3nc4ncccc4s3)cc2o1 [Example 118, meso-endo-N-{8-[6-(Thiazolo[4,5-b]pyridin-2-yloxy)-benzofuran-2-ylmethyl]-8-aza-bicyclo[3.2.1]oct-3-yl}-acetamide] | 7.30 | 7.64 | 97% | 89% | – |
| CC(=O)N1C[C@H]2CC[C@@H](C1)N2Cc1cc2ccc(Oc3nc4ncccc4s3)cc2o1 [Example 119, meso-1-{8-[6-(Thiazolo[4,5-b]pyridin-2-yloxy)-benzofuran-2-ylmethyl]-3,8-diaza-bicyclo[3.2.1]oct-3-yl}-ethanone] | 6.66 | 7.44 | 83% | 78% | – |
| CC(=O)N[C@H]1C[C@H]2CC[C@@H](C1)N2Cc1cc2ccc(Oc3nc4ncccc4s3)cc2s1 [Example 135, meso-endo-N-{8-[6-(Thiazolo[4,5-b]pyridin-2-yloxy)-benzo[b]thiophen-2-ylmethyl]-8-aza-bicyclo[3.2.1]oct-3-yl}-acetamide] | 6.96 | 8.52 | 42% | 85% | – |
| CC(=O)N1C[C@H]2CC[C@@H](C1)N2Cc1coc2cc(Oc3nc4ncccc4s3)ccc12 [Example 153, 1-{8-[6-(Thiazolo[4,5-b]pyridin-2-yloxy)-benzofuran-3-ylmethyl]-3,8-diaza-bicyclo[3.2.1]oct-3-yl}-ethanone] | 7.60 | 8.70 | 82% | 84% | – |
| CC(=O)N1C[C@@H]2C[C@H]1CN2Cc1coc2cc(Oc3nc4ncccc4s3)ccc12 [Example 154, (1S,4S)-1-{5-[6-(Thiazolo[4,5-b]pyridin-2-yloxy)-benzofuran-3-ylmethyl]-2,5-diaza-bicyclo[2.2.1]hept-2-yl}-ethanone] | 7.59 | 8.15 | 83% | 83% | – |
| CC(=O)N[C@H]1C[C@H]2CC[C@@H](C1)N2Cc1coc2cc(Oc3nc4ncccc4s3)ccc12 [Example 155, meso-endo-N-{8-[6-(Thiazolo[4,5-b]pyridin-2-yloxy)-benzofuran-3-ylmethyl]-8-aza-bicyclo[3.2.1]oct-3-yl}-acetamide] | 8.05 | – | 88% | 85% | 8.70 |
| c1cnc2nc(Oc3ccc4c(CN5CCOCC5)coc4c3)sc2c1 [Example 156, 2-(3-Morpholin-4-ylmethyl-benzofuran-6-yloxy)-thiazolo[4,5-b]pyridine] | 7.68 | 7.77 | 86% | 91% | – |

More lines, main results first:

| pIC50 [1] | pIC50 [4, 5] | SMILES | inhibition at 30 mg/kg [2] | inhibition at 30 mg/kg [3] | pIC50 [4] |
| --- | --- | --- | --- | --- | --- |
| 7.80 | 8.10 | CC(=O)N1C[C@H]2C[C@@H]1CN2Cc1coc2cc(Oc3nc4ncccc4s3)ccc12 [Example 157, (1R,4R)-1-{5-[6-(Thiazolo[4,5-b]pyridin-2-yloxy)-benzofuran-3-ylmethyl]-2,5-diaza-bicyclo[2.2.1]hept-2-yl}-ethanone] | 93% | 97% | – |
| 7.49 | 8.22 | c1cnc2nc(Oc3ccc4c(CN5C[C@@H]6C[C@H]5CO6)coc4c3)sc2c1 [Example 158, (1S,4S)-2-[3-(2-Oxa-5-aza-bicyclo[2.2.1]hept-5-ylmethyl)-benzofuran-6-yloxy]-thiazolo[4,5-b]pyridine] | 87% | 95% | – |
| 7.10 | 7.80 | C[C@H]1COCCN1Cc1coc2cc(Oc3nc4ncccc4s3)ccc12 [Example 159, (S)-2-[3-(3-Methyl-morpholin-4-ylmethyl)-benzofuran-6-yloxy]-thiazolo[4,5-b]pyridine] | 78% | 83% | – |
| 7.31 | 8.30 | NC(=O)N1C[C@H]2C[C@@H]1CN2Cc1coc2cc(Oc3nc4ncccc4s3)ccc12 [Example 160, (1R,4R)-5-[6-(Thiazolo[4,5-b]pyridin-2-yloxy)-benzofuran-3-ylmethyl]-2,5-diaza-bicyclo[2.2.1]heptane-2-carboxylic acid amide] | 77% | 90% | – |
| 7.59 | 9.00 | CC(=O)NCC1CCN(Cc2coc3cc(Oc4nc5ncccc5s4)ccc23)CC1 [Example 162, N-{1-[6-(Thiazolo[4,5-b]pyridin-2-yloxy)-benzofuran-3-ylmethyl]-piperidin-4-ylmethyl}-acetamide] | 87% | 90% | – |
| 6.66 | 7.06 | CC(=O)N1CCC2(CCN(Cc3cc4cc(Oc5nc6ncccc6s5)ccc4o3)CC2)CC1 [Example 167, 1-{9-[5-(Thiazolo[4,5-b]pyridin-2-yloxy)-benzofuran-2-ylmethyl]-3,9-diaza-spiro[5.5]undec-3-yl}-ethanone] | 77% | 78% | – |
| 6.68 | 7.44 | CC(=O)N1C[C@@H]2C[C@H]1CN2Cc1cc2ccc(Oc3nc4ncccc4s3)cc2o1 [Example 168, (1S,4S)-1-{5-[6-(Thiazolo[4,5-b]pyridin-2-yloxy)-benzofuran-2-ylmethyl]-2,5-diaza-bicyclo[2.2.1]hept-2-yl}-ethanone] | 74% | 70% | – |
| 7.64 | 8.52 | CC(=O)N1C[C@@H]2CC[C@H]1CN2Cc1cc2cc(Oc3nc4ncccc4s3)ccc2o1 [Example 169, meso-1-{5-[5-(Thiazolo[4,5-b]pyridin-2-yloxy)-benzofuran-2-ylmethyl]-2,5-diaza-bicyclo[2.2.2]oct-2-yl}-ethanone] | 92% | 85% | – |
| 7.10 | 8.30 | CC(=O)N1C[C@@H]2CC[C@H]1CN2Cc1cc2ccc(Oc3nc4ncccc4s3)cc2o1 [Example 170, meso-1-{5-[6-(Thiazolo[4,5-b]pyridin-2-yloxy)-benzofuran-2-ylmethyl]-2,5-diaza-bicyclo[2.2.2]oct-2-yl}-ethanone] | 70% | 76% | – |
